Assay results reported in ChEMBL document CHEMBL5154636, “Discovery of STAT3 and Histone Deacetylase (HDAC) Dual-Pathway Inhibitors for the Treatment of Solid Cancer” (J Med Chem, 2021).
Active and inactive are the calls of the source. The rule behind the calls is not given here.

Key:
[1] = target: T1, Signal transducer and activator of transcription 3 (Homo sapiens, UniProt P40763); assay: Binding affinity to recombinant GST tagged STAT3 (unknown origin) assessed as dissociation constant
Histone deacetylase 1 = Histone deacetylase 1 (Homo sapiens, UniProt Q13547); assay: Inhibition of recombinant human HDAC1 using RHKK(Ac)AMC fluorogenic peptide as substrate by fluorescence assay
[2] = Clearance in Sprague-Dawley rat at 2 mg/kg, iv measured upto 24 hrs by LC-MS/MS analysis; format: ADME, organism-based; settings: in vivo
MDA-MB-231 [3] = assay: Induction of apoptosis in human MDA-MB-231 cells assessed as late apoptotic cells at 2 uM incubated for 24 hrs by Annexin-V/FITC and PI staining based flow cytometry analysis (reference value: 0.7%); format: functional
[4] = target: T2, Protein deacetylase HDAC6 (Homo sapiens, UniProt Q9UBN7); assay: Inhibition of recombinant human HDAC6 using RHKK(Ac)AMC fluorogenic peptide as substrate by fluorescence assay
T2 sequence (Q9UBN7 whole entry): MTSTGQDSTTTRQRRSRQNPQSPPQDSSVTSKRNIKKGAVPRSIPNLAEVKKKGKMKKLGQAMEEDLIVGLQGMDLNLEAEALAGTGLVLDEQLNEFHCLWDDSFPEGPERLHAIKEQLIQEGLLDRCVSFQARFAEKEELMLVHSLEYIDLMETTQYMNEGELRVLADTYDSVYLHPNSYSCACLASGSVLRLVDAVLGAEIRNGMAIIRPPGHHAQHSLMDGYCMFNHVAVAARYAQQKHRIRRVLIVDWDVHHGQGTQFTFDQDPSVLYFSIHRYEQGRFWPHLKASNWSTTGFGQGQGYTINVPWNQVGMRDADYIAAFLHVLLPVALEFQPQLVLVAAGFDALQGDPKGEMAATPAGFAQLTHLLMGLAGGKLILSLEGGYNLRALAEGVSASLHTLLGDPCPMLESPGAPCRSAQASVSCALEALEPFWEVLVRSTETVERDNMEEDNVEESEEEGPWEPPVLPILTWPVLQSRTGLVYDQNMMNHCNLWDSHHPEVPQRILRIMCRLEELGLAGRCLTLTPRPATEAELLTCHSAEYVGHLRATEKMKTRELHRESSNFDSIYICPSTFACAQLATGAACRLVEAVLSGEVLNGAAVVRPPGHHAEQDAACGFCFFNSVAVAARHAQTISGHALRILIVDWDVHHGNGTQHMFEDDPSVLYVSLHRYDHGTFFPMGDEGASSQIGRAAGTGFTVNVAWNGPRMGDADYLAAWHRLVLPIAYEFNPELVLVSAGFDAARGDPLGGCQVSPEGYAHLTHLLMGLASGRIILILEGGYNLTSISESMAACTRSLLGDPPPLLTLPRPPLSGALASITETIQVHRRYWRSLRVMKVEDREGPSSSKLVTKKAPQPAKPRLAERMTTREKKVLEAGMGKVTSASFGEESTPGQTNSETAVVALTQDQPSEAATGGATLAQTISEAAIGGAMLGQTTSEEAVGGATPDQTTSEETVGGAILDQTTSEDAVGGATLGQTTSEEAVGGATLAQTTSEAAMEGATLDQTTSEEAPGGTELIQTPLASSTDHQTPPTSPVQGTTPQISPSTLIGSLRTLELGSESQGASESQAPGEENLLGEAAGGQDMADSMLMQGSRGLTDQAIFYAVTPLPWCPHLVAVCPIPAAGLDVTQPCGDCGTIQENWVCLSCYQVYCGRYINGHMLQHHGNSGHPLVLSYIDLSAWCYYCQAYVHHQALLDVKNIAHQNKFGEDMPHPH

[5] = target: T1, Signal transducer and activator of transcription 3; assay: Inhibition of STAT3 in human MDA-MB-231 cells assessed as decrease in cyclin-D1 protein expression at 0.5 to 5 uM after 24 hrs by Western blot analysis; format: cell-based; settings: dose 0.5-5 µM
MDA-MB-231 [6] = assay: Induction of apoptosis in human MDA-MB-231 cells assessed as chromatinorrhexis at 0.5 to 5 uM incubated for 24 hrs by Hoechst 33258 staining based fluorescence microscopy analysis; format: functional, cell-based; settings: dose 0.5-5 µM
MDA-MB-231 [7] = assay: Induction of apoptosis in human MDA-MB-231 cells assessed as necrotic cells at 2 uM incubated for 24 hrs by Annexin-V/FITC and PI staining based flow cytometry analysis (reference value: 0.0%); format: functional
MDA-MB-231 [8] = assay: Induction of apoptosis in human MDA-MB-231 cells assessed as chromatin condensation at 0.5 to 5 uM incubated for 24 hrs by Hoechst 33258 staining based fluorescence microscopy analysis; format: functional, cell-based; settings: dose 0.5-5 µM
[9] = Half life in Sprague-Dawley rat at 20 mg/kg, po measured upto 24 hrs by LC-MS/MS analysis; format: ADME, organism-based; settings: in vivo
MDA-MB-231 [10] = assay: Induction of apoptosis in human MDA-MB-231 cells assessed as viable cells at 10 uM incubated for 24 hrs by Annexin-V/FITC and PI staining based flow cytometry analysis (reference value: 97.8%); format: functional; settings: read-out: Activity
[11] = Acute toxicity in po dosed ICR mouse assessed as maximum tolerated dose measured after 7 days; format: organism-based; settings: in vivo, time 7 day
MDA-MB-231 [12] = assay: Induction of apoptosis in human MDA-MB-231 cells assessed as early apoptotic cells at 2 uM incubated for 24 hrs by Annexin-V/FITC and PI staining based flow cytometry analysis (reference value: 1.4%); format: functional
MDA-MB-231 [13] = assay: Induction of apoptosis in human MDA-MB-231 cells assessed as increase in cleaved capase-3 level at 0.5 to 5 uM incubated for 24 hrs by Western blot analysis; format: functional, cell-based; settings: dose 0.5-5 µM
MCF-10A = assay: Cytotoxicity against human MCF-10 A cells assessed as reduction in cell viability at 32 uM incubated for 48 hrs by MTT assay relative to control; format: toxicity, cell-based
MDA-MB-231 [14] = assay: Induction of apoptosis in human MDA-MB-231 cells assessed as increase in cleaved capase-7 level at 0.5 to 5 uM incubated for 24 hrs by Western blot analysis; format: functional, cell-based; settings: dose 0.5-5 µM
MDA-MB-231 [15] = assay: Induction of apoptosis in human MDA-MB-231 cells assessed as late apoptotic cells at 10 uM incubated for 24 hrs by Annexin-V/FITC and PI staining based flow cytometry analysis (reference value: 0.7%); format: functional
[16] = Toxicity in BALB/c mousee assessed as change in body weight at 15 to 30 mg/kg, ip qd for 21 days; format: organism-based; settings: mouse, in vivo, 504 h, dose 15-30 mg/kg, time 21 day
4T1 = assay: Antitumor activity against mouse 4T1 cells allografted in BALB/c mouse assessed as reduction in tumor weight at 30 mg/kg, ip qd for 21 days by vernier caliper method relative to control; format: functional; design: scale not given: the % may be the effect or the level left; settings: time 21 day

T1 sequence (P40763 whole entry): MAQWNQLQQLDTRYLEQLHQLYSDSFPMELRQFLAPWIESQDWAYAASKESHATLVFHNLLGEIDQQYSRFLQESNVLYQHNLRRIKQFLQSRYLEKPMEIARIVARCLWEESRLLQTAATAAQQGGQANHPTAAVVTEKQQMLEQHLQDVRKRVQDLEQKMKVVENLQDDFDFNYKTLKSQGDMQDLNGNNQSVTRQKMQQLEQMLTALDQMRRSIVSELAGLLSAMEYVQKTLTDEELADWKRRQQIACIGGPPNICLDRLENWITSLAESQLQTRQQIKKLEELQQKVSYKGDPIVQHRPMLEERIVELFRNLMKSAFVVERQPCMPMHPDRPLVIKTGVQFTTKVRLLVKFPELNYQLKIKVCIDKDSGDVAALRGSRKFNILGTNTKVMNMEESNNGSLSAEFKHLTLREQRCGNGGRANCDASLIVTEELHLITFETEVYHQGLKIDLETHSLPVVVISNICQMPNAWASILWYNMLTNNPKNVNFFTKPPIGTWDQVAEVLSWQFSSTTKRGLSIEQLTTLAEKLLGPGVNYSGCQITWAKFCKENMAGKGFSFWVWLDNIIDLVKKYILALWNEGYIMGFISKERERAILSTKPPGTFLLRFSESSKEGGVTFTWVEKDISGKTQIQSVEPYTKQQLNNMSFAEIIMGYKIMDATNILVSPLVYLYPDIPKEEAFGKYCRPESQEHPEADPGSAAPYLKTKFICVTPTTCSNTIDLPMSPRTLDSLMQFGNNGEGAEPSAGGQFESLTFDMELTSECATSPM
Sequence of Histone deacetylase 1 (Q13547 whole entry): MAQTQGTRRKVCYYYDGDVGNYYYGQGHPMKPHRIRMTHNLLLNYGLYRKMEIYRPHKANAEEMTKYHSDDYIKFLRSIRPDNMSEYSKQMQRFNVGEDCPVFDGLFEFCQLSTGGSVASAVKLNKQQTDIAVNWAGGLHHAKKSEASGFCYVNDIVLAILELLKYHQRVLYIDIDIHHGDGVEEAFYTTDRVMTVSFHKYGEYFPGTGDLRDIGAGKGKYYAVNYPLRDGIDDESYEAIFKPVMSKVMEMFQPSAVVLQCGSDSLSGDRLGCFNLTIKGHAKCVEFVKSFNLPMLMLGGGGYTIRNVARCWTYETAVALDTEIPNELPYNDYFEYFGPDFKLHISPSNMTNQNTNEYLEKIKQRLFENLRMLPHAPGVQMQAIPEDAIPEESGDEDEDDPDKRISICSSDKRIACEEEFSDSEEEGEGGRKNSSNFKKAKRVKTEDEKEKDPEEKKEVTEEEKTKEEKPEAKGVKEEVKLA

Compound: COc1cc(/C=C/c2ccc(OCCCCCCC(=O)NO)cc2)cc(OC)c1
- Kd [1]: 0.01516 s⁻¹
- Kd ([1]; read-out: Kd): 33.6 nM
- IC50 (Histone deacetylase 1): 683 nM
- clearance [2]: 63.9 mL/min/kg
- Activity (MDA-MB-231 [3]): 5.7%
- IC50 [4]: 104 nM
- inhibition [5]: Active
- Activity (MDA-MB-231 [6]): Active
- Activity (MDA-MB-231 [7]): 0.1%
- Activity (MDA-MB-231 [8]): Active
- half-life [9]: 52.8 min
- viability at 10 µM (MDA-MB-231 [10]): 40.5%
- MTD at 168 h [11]: > 400 mg/kg
- Activity (MDA-MB-231 [12]): 4.9%
- Activity (MDA-MB-231 [13]): Active
- Activity (MCF-10A): 38%
- Activity (MDA-MB-231 [14]): Active
- Activity (MDA-MB-231 [15]): 19.7%
- Activity [16]: Non-Toxic
- Activity (4T1): 62%
